In patent US20250352587A1, “PROBIOTIC AND USE THEREOF” (priority 2023, published 2025):
In brackets after ≈: the same amount, converted by molar mass. Read-outs that look alike come from different tables or passages of the source.

Key:
[1] = system: Pdist-1; experiment: Antibiotic susceptibility test, broth dilution MIC; assay type: cell-based, Parabacteroides distasonis; details: for MIC: Parabacteroides distasonis, read-out: MIC against Pdist-1
Procedure: (§1) According to the requirements for antibiotic susceptibility tests of anaerobic bacteria in “Technical specification on antimicrobial susceptibility tests” (Standard No. WS/T 639-2018) of the People's Republic of China Health Industry Standard, the susceptibility of the strains to antibiotics was determined by a broth dilution method, and the MIC values were recorded.
(§2) 0.1 mL of the prepared 5 bacterial suspensions were sequentially pipetted into 96-well plates containing equal volumes of prepared antibacterial drugs, such that the final concentration of the inoculated bacteria was 5×10^5 CFU/mL, and the drug concentrations were 256 μg/mL, 128 μg/mL, 64 μg/mL, 32 μg/mL, 16 μg/mL, 8 μg/mL, 4 μg/mL, 2 μg/mL, 1 μg/mL, 0.5 μg/mL, 0.25 μg/mL, and 0.125 μg/mL, respectively. Incubation: The above 96-well plates were anaerobically incubated in an incubator at 37° C. for 46-48 h.

[2] = system: Bbifi-1; experiment: Antibiotic susceptibility test, broth dilution MIC; assay type: cell-based, Bifidobacterium bifidum; details: for MIC: Bifidobacterium bifidum, read-out: MIC against Bbifi-1
Procedure: as §1, §2

[3] = system: Lsali-1; experiment: Antibiotic susceptibility test, broth dilution MIC; assay type: cell-based, Lactobacillus salivarius; details: anaerobic, 37° C., 46-48 h; for MIC: Ligilactobacillus salivarius, read-out: MIC against Lsali-1
Procedure: as §1, §2

[4] = system: Eaviu-1; experiment: Antibiotic susceptibility test, broth dilution MIC; assay type: cell-based, Enterococcus avium; details: for MIC: Enterococcus avium, read-out: MIC against Eaviu-1
Procedure: as §1, §2

[5] = system: Lferm-1; experiment: Antibiotic susceptibility test, broth dilution MIC; assay type: cell-based, Limosilactobacillus fermentum; details: for MIC: Limosilactobacillus fermentum, read-out: MIC against Lferm-1
Procedure: as §1, §2

[6] = system: colon injury; experiment: Colon histopathology (HE staining) in mice with 5-FU-induced diarrhea; assay type: in vivo; details: panels 1A and 2A in FIG. 13
Procedure: After the animal experiment, the middle colon of the mice was collected and fixed in 4% paraformaldehyde for 24 h. The fixed colon tissues were sequentially dehydrated, transparentized, waxed, and embedded. The embedded paraffin blocks of colon tissues were sectioned at a thickness of 5 μm, followed by spreading and baking, and the dried sections were subjected to conventional HE staining. The pathological changes were observed under an optical microscope. Pathological scoring was performed according to Table 6 below, and the total pathological scores (the sum of the scores of all indices) were calculated.

[7] = broth dilution, anaerobic, 37° C., 46-48 h

Row | Compound | MIC [1, 7] | MIC [2, 7] | MIC [3] | MIC [4, 7] | MIC [5, 7] | other results
1 | CC1(C)S[C@@H]2[C@H](NC(=O)[C@H](N)c3ccccc3)C(=O)N2[C@H]1C(=O)O [Ampicillin] | 8 mg/L (≈ 22.9 µM) | 0.25 mg/L (≈ 0.715 µM) | 4 mg/L (≈ 11.4 µM) | 4 mg/L (≈ 11.4 µM) | 0.5 mg/L (≈ 1.43 µM) | 
2 | CO/N=C(\C(=O)N[C@@H]1C(=O)N2C(C(=O)O)=C(CSc3nc(=O)c(=O)[nH]n3C)CS[C@H]12)c1csc(N)n1 [Ceftriaxone] | 16 mg/L (≈ 28.9 µM) |  |  |  |  | 
3 | O=C(N[C@H](CO)[C@H](O)c1ccc([N+](=O)[O-])cc1)C(Cl)Cl [Chloramphenicol] |  | 8 mg/L (≈ 24.8 µM) | 256 mg/L (≈ 792 µM) | 128 mg/L (≈ 396 µM) | 0.125 mg/L (≈ 0.387 µM) | 
4 | CCC[C@@H]1C[C@@H](C(=O)N[C@@H]([C@H]2O[C@H](SC)[C@H](O)[C@@H](O)[C@H]2O)[C@H](C)Cl)N(C)C1 [Clindamycin] | 16 mg/L (≈ 37.6 µM) | 1 mg/L (≈ 2.35 µM) | 8 mg/L (≈ 18.8 µM) | 4 mg/L (≈ 9.41 µM) | < 0.125 mg/L | 
5 | CC[C@H]1OC(=O)[C@H](C)[C@@H](O[C@H]2C[C@@](C)(OC)[C@@H](O)[C@H](C)O2)[C@H](C)[C@@H](O[C@@H]2O[C@H](C)C[C@H](N(C)C)[C@H]2O)[C@](C)(O)C[C@@H](C)C(=O)[C@H](C)[C@@H](O)[C@]1(C)O [Erythromycin] | 32 mg/L (≈ 43.6 µM) | 0.125 mg/L (≈ 0.17 µM) | 0.125 mg/L (≈ 0.17 µM) | 0.25 mg/L (≈ 0.341 µM) | < 0.125 mg/L | 
6 | C[C@@H](O)[C@H]1C(=O)N2C(C(=O)O)=C(SCCN=CN)C[C@H]12 [Imipenem] | 16 mg/L (≈ 53.4 µM) |  |  |  |  | 
7 | NC[C@H]1O[C@H](O[C@H]2[C@H](O)[C@@H](O[C@H]3O[C@H](CO)[C@@H](O)[C@H](N)[C@H]3O)[C@H](N)C[C@@H]2N)[C@H](O)[C@@H](O)[C@@H]1O [Kanamycin] |  |  | 256 mg/L (≈ 528 µM) |  |  | 
8 | C[C@H]1COc2c(N3CCN(C)CC3)c(F)cc3c(=O)c(C(=O)O)cn1c23 [Levofloxacin] | 8 mg/L (≈ 22.1 µM) |  |  |  |  | 
9 | CO[C@H]1/C=C/O[C@@]2(C)Oc3c(C)c(O)c4c(O)c(c(/C=N/N5CCN(C)CC5)c(O)c4c3C2=O)NC(=O)/C(C)=C\C=C\[C@H](C)[C@H](O)[C@@H](C)[C@@H](O)[C@@H](C)[C@H](OC(C)=O)[C@@H]1C [Rifampicin] | < 0.125 mg/L |  |  |  |  | 
10 | [H]/N=C(/N)N[C@H]1[C@H](O)[C@@H](O)[C@H](O[C@@H]2O[C@@H](C)[C@](O)(C=O)[C@H]2O[C@@H]2O[C@@H](CO)[C@H](O)[C@@H](O)[C@@H]2NC)[C@@H](N/C(N)=N\[H])[C@@H]1O [Streptomycin] | < 0.125 mg/L | 128 mg/L (≈ 220 µM) | 128 mg/L (≈ 220 µM) | 128 mg/L (≈ 220 µM) | 0.125 mg/L (≈ 0.215 µM) | 
11 | CN(C)[C@@H]1C(O)=C(C(N)=O)C(=O)[C@@]2(O)C(O)=C3C(=O)c4c(O)cccc4[C@@](C)(O)[C@H]3C[C@@H]12 [Tetracycline] | 8 mg/L (≈ 18 µM) | 0.125 mg/L (≈ 0.281 µM) | 0.5 mg/L (≈ 1.13 µM) | 0.5 mg/L (≈ 1.13 µM) | < 0.125 mg/L | 
12 | CN[C@H](CC(C)C)C(=O)N[C@H]1C(=O)N[C@@H](CC(N)=O)C(=O)N[C@H]2C(=O)N[C@H]3C(=O)N[C@H](C(=O)N[C@H](C(=O)O)c4cc(O)cc(O)c4-c4cc3ccc4O)[C@H](O)c3ccc(c(Cl)c3)Oc3cc2cc(c3O[C@@H]2O[C@H](CO)[C@@H](O)[C@H](O)[C@H]2O[C@H]2C[C@](C)(N)[C@H](O)[C@H](C)O2)Oc2ccc(cc2Cl)[C@H]1O [Vancomycin] |  |  |  |  |  | MIC [1]: 8 mg/L (≈ 5.52 µM); MIC [2]: 1 mg/L (≈ 0.69 µM); MIC [4]: 2 mg/L (≈ 1.38 µM); MIC [5]: 0.125 mg/L (≈ 0.0863 µM)
13 | CN(C)C(=O)C(CCN1CCC(O)(c2ccc(Cl)cc2)CC1)(c1ccccc1)c1ccccc1 [loperamide] |  |  |  |  |  | colon histopathological observation (HE staining) [6]: the colon structure was relatively intact, mucosal epithelial cells showed no significant necrosis, the number of goblet cells was significantly increased, and only a small amount of lymphocyte infiltration was observed in the lamina propria
14 | Gentamicin |  |  |  |  |  | MIC against Pdist-1 [1, 7]: <0.125 mg/L; MIC against Bbifi-1 [2, 7]: 8 mg/L; MIC against Lsali-1 [3]: 16 mg/L; MIC against Eaviu-1 [4, 7]: 8 mg/L; MIC against Lferm-1 [5, 7]: 0.125 mg/L
15 | Penicillin |  |  |  |  |  | MIC against Pdist-1 [1, 7]: 8 mg/L
